Measurements reported in patent US10918645B2 (LIFEARC, priority 2016, dated 2021).

Legend:
Assay type in all cases: biochemical
Conditions in all cases: 1 μM inhibitor concentration
ERK1 = ERK1 (Homo sapiens (Human), UniProt P27361); experiment: ERK1 kinase selectivity assay
Procedure: 5-20 mU of ERK1 (diluted in 50 mM Tris (pH 7.5), 0.1 mM EGTA, 1 mg/ml BSA, 0.1%, b-Mercaptoethanol) is assayed against MBP in a final volume of 25.5 μl containing 50 mM Tris (pH 7.5), 0.1 mM EGTA, 0.1%, b-Mercaptoethanol, 0.33 mg/ml MBP, 10 mM magnesium acetate and 0.005 mM [33P-g-ATP](500-1000 cpm/pmole) and incubated for 30 mins at room temperature. Assays are stopped by addition of 5 μl of 0.5M (3%) orthophosphoric acid. Assays are harvested onto P81 Unifilter plates using a wash buffer of 50 mM orthophosphoric acid.

ERK2 = ERK2 (Homo sapiens (Human), UniProt P28482); experiment: ERK2 kinase selectivity assay
Procedure: MAPK/ERK2 (5-20 mU diluted in 50 mM Tris pH 7.5, 0.1 mM EGTA, 0.1 mM Na3VO4, 0.1% b-mercaptoethanol, 1 mg/ml BSA) is assayed against MBP in a final volume of 25.5 μl in 25 mM Tris pH 7.5, 0.1 mM EGTA, 0.33 mg/ml MBP, 10 mM magnesium acetate and 0.05 mM [33P-g-ATP](500-1000 cpm/pmole) and incubated for 30 min at room temperature. Assays are stopped by addition of 5 μl of 0.5 M (3%) orthophosphoric acid and then harvested onto P81 Unifilter plates with a wash buffer of 50 mM orthophosphoric acid.

ROCK2 = ROCK2 (Homo sapiens (Human), UniProt O75116); experiment: ROCK2 kinase selectivity assay
Procedure: (§1) ROCK-II (ROKa) (5-20 mU diluted in 50 mM Tris pH 7.5, 0.1 mM EGTA, 0.1% b-mercaptoethanol, 1 mg/ml BSA) is assayed against Long S6 substrate peptide ([…]) in a final volume of 25.5 μl containing 50 mM Tris pH 7.5, 0.1 mM EGTA, 30 μM Long S6 substrate peptide, 10 mM magnesium acetate and 0.02 mM [33P-g-ATP] (50-1000 cpm/pmole) and incubated for 30 min at room temperature. Assays are stopped by addition of 5 μl of 0.5 M (3%) orthophosphoric acid and then harvested onto P81 Unifilter plates with a wash buffer of 50 mM orthophosphoric acid.

HIPK2 = HIPK2 (Homo sapiens (Human), UniProt Q9H2X6); experiment: HIPK2 kinase selectivity assay
Procedure: 5-20 mU of HIPK2 (diluted in 50 mM Tris (pH 7.5), […] EGTA, 1 mg/ml BSA, 0.1%, b-Mercaptoethanol) is assayed against MBP in a final volume of 25.5 μl containing 50 mM Tris (pH 7.5), 0.1 mM EGTA, 0.1%, b-Mercaptoethanol, 0.33 mg/ml MBP, 10 mM magnesium acetate and 0.005 mM [33P-g-ATP](500-1000 cpm/pmole) and incubated for 30 mins at room temperature. Assays are stopped by addition of 5 μl of 0.5M (3%) orthophosphoric acid. Assays are harvested onto P81 Unifilter plates using a wash buffer of 50 mM orthophosphoric acid.

MST2 = MST2 (Homo sapiens (Human), UniProt Q13188); experiment: MST2 kinase selectivity assay
Procedure: MST2 (5-20 mU diluted in 50 mM Tris pH 7.5, 0.1 mM EGTA, 0.1% b-mercaptoethanol, 100 µM Vanadate) is assayed against MBP in a final volume of 25.5 μl containing 50 mM Tris pH 7.5, 0.05% b-mercaptoethanol, 0.33 mg/ml MBP, 10 mM magnesium acetate and 0.02 mM [33P-g-ATP] (50-1000 cpm/pmole) and incubated for 30 min at room temperature. Assays are stopped by addition of 5 μl of 0.5 M (3%) orthophosphoric acid and then harvested onto P81 Unifilter plates with a wash buffer of 50 mM orthophosphoric acid.

BTK = BTK (Homo sapiens (Human), UniProt Q06187); experiment: BTK kinase selectivity assay
Procedure: as §1, with “BTK” for “ROCK-II (ROKa)”, “EGTA,” for “EGTA, 0.1% b-mercaptoethanol,”, “a” for “Long S6”, “300 µM” for “0.1 mM EGTA, 30 μM Long S6”, “0.05” for “0.02”

FGF-R1 = FGF-R1 (Homo sapiens (Human), UniProt P11362); experiment: FGF-R1 kinase selectivity assay
Procedure: (§2) FGF-R1 (5-20 mU diluted in 50 mM Tris pH 7.5, 0.1 mM EGTA, 1 mg/ml BSA) is assayed against a substrate peptide (Poly Glut Tyr) in a final volume of 25.5 μl containing 50 mM Tris pH 7.5, 1 mg/ml substrate peptide, 10 mM magnesium acetate and 0.02 mM [33P-g-ATP] (50-1000 cpm/pmole) and incubated for 30 min at room temperature. Assays are stopped by addition of 5 μl of 0.5 M (3%) orthophosphoric acid and then harvested onto P81 Unifilter plates with a wash buffer of 50 mM orthophosphoric acid.

HER4 = HER4 (Homo sapiens (Human), UniProt Q15303); experiment: HER4 kinase selectivity assay
Procedure: HER4 (5-20 mU diluted in 50 mM Tris pH 7.5, 0.1 mM EGTA, 0.1% β-mercaptoethanol, 1 mg/ml BSA) is assayed against Poly Glut Tyr in a final volume of […] containing 50 mM Tris pH 7.5, 0.1 mM EGTA, 1 mg/ml Poly Glut Tyr, 10 mM magnesium acetate and 0.005 mM [33P-γ-ATP] (50-1000 cpm/pmole) and incubated for 30 min at room temperature. Assays are stopped by addition of 5 μl of 0.5 M (3%) orthophosphoric acid and then harvested onto P81 Unifilter plates with a wash buffer of 50 mM orthophosphoric acid.

VEG-FR = VEG-FR kinase selectivity assay
Procedure: as §2, with “VEG-FR (5-20” for “FGF-R1 (5-20”, “peptide ([…])” for “peptide (Poly Glut Tyr)”, “7.5, 300 µM” for “7.5, 1 mg/ml”

Chain of MST2 (Q13188 whole entry, species assumed): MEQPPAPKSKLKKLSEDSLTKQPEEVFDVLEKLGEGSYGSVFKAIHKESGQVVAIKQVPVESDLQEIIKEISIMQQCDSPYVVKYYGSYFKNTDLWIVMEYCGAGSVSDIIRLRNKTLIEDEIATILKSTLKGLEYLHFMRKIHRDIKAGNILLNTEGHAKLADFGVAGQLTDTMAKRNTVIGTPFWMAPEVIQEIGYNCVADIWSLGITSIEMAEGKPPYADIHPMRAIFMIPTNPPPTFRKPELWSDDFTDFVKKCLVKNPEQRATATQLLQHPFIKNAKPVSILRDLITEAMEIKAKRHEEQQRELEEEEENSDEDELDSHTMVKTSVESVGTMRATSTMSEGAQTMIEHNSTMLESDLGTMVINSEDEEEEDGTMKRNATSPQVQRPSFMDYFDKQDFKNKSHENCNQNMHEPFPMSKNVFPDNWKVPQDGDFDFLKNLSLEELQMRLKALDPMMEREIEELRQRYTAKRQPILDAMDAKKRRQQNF
Chain of BTK (Q06187 whole entry, species assumed): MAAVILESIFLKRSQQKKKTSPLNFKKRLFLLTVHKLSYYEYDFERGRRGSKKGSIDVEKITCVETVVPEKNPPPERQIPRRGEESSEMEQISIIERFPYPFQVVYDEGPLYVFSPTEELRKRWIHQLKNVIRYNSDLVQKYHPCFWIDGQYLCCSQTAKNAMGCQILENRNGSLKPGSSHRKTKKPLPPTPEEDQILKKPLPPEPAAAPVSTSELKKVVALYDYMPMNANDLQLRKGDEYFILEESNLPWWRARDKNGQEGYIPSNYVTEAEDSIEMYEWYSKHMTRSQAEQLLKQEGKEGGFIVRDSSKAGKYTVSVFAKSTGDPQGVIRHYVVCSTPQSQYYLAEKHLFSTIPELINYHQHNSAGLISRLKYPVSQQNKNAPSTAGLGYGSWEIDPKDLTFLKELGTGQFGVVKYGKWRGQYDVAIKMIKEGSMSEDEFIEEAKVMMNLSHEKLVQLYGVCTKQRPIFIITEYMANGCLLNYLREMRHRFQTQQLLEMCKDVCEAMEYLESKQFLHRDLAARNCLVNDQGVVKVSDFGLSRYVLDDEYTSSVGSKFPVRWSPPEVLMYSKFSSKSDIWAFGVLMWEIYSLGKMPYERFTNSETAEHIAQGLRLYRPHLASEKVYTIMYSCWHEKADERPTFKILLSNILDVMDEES
Chain of ROCK2 (O75116 whole entry, species assumed): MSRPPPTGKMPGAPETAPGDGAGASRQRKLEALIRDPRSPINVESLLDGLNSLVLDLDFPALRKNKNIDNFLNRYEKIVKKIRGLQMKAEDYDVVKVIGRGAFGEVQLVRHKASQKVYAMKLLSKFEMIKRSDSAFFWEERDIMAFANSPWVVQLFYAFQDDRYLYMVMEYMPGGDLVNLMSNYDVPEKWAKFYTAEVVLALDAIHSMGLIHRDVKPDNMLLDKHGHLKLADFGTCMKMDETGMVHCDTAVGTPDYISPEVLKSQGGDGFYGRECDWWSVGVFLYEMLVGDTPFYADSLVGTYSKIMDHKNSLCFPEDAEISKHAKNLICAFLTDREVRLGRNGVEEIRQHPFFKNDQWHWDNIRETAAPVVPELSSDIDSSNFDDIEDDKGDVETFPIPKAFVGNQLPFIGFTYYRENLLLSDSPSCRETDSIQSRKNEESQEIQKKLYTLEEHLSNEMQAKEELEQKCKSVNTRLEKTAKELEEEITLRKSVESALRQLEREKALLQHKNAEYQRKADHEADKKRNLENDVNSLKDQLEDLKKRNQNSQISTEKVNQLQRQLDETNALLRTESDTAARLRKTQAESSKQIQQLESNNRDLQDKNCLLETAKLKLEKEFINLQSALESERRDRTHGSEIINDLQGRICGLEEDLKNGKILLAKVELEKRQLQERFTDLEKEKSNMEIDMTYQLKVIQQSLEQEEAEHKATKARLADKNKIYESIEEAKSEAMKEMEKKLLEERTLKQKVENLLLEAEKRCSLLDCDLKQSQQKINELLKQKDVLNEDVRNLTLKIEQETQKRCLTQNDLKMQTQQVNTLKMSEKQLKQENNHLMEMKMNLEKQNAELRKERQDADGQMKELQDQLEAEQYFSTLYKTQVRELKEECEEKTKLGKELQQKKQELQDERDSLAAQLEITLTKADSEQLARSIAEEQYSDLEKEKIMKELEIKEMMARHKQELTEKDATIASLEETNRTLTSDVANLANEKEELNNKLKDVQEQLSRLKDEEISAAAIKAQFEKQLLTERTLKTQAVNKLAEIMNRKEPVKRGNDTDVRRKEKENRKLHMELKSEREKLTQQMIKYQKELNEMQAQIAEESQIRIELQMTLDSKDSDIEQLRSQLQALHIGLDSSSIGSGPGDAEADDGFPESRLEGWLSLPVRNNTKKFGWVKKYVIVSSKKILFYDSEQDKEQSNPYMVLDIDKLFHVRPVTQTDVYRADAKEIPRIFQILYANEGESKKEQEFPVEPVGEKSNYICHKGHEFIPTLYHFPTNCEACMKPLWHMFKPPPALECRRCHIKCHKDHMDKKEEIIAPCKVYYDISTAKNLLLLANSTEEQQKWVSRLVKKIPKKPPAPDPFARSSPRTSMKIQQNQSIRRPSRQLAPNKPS
Chain of HIPK2 (Q9H2X6 whole entry, species assumed): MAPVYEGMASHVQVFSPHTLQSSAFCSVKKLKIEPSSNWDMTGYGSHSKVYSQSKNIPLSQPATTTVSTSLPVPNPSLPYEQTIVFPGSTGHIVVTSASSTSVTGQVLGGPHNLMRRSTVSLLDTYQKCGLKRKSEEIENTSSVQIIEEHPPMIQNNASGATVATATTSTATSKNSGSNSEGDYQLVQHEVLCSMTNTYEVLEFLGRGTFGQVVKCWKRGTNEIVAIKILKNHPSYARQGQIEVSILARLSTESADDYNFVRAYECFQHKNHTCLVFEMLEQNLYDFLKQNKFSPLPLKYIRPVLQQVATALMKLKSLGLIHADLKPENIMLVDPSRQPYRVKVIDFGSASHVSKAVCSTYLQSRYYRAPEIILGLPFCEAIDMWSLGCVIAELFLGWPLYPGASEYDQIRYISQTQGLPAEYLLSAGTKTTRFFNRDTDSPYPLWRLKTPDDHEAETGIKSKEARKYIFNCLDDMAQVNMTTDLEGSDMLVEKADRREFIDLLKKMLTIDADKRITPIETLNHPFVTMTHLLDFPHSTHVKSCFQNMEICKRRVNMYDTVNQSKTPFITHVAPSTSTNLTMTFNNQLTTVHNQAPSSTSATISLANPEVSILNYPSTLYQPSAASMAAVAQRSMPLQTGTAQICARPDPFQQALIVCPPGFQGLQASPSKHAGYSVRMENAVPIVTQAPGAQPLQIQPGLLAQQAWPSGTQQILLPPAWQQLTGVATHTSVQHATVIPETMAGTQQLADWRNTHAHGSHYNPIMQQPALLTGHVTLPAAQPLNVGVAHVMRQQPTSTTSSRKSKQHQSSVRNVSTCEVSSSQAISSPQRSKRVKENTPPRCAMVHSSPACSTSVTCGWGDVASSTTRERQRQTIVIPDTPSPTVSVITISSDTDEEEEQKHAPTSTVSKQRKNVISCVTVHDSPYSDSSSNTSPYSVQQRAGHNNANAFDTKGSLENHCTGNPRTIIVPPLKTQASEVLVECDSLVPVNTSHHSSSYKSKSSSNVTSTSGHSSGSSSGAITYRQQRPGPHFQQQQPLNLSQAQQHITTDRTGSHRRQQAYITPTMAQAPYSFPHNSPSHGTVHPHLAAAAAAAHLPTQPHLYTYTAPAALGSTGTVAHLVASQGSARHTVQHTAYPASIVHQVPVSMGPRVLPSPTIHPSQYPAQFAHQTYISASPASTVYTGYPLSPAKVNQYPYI
Chain of ERK2 (P28482 whole entry, species assumed): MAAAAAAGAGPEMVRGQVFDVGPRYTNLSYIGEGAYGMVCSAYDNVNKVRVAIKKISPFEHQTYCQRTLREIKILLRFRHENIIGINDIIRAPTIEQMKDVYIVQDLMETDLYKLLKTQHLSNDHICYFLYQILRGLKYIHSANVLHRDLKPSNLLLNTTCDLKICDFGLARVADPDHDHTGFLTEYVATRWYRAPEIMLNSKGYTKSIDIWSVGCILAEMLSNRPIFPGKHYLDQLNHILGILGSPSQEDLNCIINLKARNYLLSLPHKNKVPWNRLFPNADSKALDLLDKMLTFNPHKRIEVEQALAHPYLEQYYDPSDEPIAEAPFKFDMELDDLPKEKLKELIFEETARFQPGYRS
Chain of FGF-R1 (P11362 22-822, species assumed): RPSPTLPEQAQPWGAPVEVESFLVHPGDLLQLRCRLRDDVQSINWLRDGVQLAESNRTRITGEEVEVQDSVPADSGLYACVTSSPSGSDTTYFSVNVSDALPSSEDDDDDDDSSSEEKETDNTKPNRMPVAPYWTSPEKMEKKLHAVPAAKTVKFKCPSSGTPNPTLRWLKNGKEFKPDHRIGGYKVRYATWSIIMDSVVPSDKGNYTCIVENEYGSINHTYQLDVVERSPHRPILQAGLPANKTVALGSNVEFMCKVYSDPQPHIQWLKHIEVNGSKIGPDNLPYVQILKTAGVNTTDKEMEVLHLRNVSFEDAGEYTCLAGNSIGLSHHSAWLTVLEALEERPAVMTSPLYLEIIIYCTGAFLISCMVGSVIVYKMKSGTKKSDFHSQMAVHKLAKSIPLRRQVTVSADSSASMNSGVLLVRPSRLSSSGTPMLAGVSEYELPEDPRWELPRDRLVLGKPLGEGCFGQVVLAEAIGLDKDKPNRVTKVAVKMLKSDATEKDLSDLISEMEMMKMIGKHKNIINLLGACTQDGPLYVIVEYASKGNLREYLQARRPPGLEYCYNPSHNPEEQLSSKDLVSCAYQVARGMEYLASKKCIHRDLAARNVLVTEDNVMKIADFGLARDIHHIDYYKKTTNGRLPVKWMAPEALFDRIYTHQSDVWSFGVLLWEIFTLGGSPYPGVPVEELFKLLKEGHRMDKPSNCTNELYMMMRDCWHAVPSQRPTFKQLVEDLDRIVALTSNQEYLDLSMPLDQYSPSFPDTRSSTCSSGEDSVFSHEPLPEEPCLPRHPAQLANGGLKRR

**Q.** For `c1cc2[nH]nc3c2c(n1)N(C1CCOCC1)CCC3` [Example 29, 6-(tetrahydro-2H-pyran-4-yl)-6,7,8,9-tetrahydro-2H-1,2,5,6-tetraazabenzo[cd]azulene], which “percentage inhibition of ERK1” value (ERK1) is on record?
**A.** The value was 0 percentage.

**Q.** And the “percentage inhibition of ERK2” value (ERK2)?
**A.** The value was 0 percentage.

**Q.** And the “percentage inhibition of ROCK2” value (ROCK2)?
**A.** Its value is 11 percentage.

**Q.** What about the “percentage inhibition of HIPK2” value (HIPK2) of the same compound?
**A.** Its value is 3 percentage.

**Q.** What about the “percentage inhibition of MST2” value (MST2) of the same compound?
**A.** The value was 10 percentage.

**Q.** And the “percentage inhibition of BTK” value (BTK)?
**A.** Its value is 0 percentage.

**Q.** And the “percentage inhibition of FGF-R1” value (FGF-R1)?
**A.** Its value is 12 percentage.

**Q.** And the “percentage inhibition of HER4” value (HER4)?
**A.** Its value is 10 percentage.

**Q.** What about the “percentage inhibition of VEG-FR” value (VEG-FR) of the same compound?
**A.** The value was 9 percentage.

**Q.** Which results are given for `c1cc2[nH]nc3c2c(n1)N(C1CCC1)CCC3` [Example 22, 6-cyclobutyl-6,7,8,9-tetrahydro-2H-1,2,5,6-tetraazabenzo[cd]azulene]?
**A.** percentage inhibition of ERK1 (ERK1): 0 percentage; percentage inhibition of ERK2 (ERK2): 0 percentage; percentage inhibition of ROCK2 (ROCK2): 5 percentage; percentage inhibition of HIPK2 (HIPK2): 11 percentage; percentage inhibition of MST2 (MST2): 20 percentage; percentage inhibition of BTK (BTK): 0 percentage; percentage inhibition of FGF-R1 (FGF-R1): 11 percentage; percentage inhibition of HER4 (HER4): 8 percentage; percentage inhibition of VEG-FR (VEG-FR): 0 percentage

**Q.** For `CC(C)n1ncc2c1CN(C1CCN(C)CC1)c1nccc3[nH]nc-2c13` [Example 68], which “percentage inhibition of ERK1” value (ERK1) is on record?
**A.** The value was 11 percentage.

**Q.** What about the “percentage inhibition of ERK2” value (ERK2) of the same compound?
**A.** The value was 11 percentage.

**Q.** What about the “percentage inhibition of ROCK2” value (ROCK2) of the same compound?
**A.** The value was 21 percentage.

**Q.** What about the “percentage inhibition of HIPK2” value (HIPK2) of the same compound?
**A.** The value was 0 percentage.

**Q.** What about the “percentage inhibition of MST2” value (MST2) of the same compound?
**A.** Its value is 2 percentage.

**Q.** What about the “percentage inhibition of BTK” value (BTK) of the same compound?
**A.** Its value is 0 percentage.

**Q.** What about the “percentage inhibition of FGF-R1” value (FGF-R1) of the same compound?
**A.** Its value is 35 percentage.

**Q.** And the “percentage inhibition of HER4” value (HER4)?
**A.** The value was 1 percentage.

**Q.** What about the “percentage inhibition of VEG-FR” value (VEG-FR) of the same compound?
**A.** Its value is 42 percentage.

**Q.** With `c1cc2[nH]nc3c2c(n1)N(C1CCCC1)CCC3` [Example 23, 6-cyclopentyl-6,7,8,9-tetrahydro-2H-1,2,5,6-tetraazabenzo[cd]azulene] as the compound, how does the “percentage inhibition of ERK1” value (ERK1) read?
**A.** Its value is 0 percentage.

**Q.** And the “percentage inhibition of ERK2” value (ERK2)?
**A.** Its value is 0 percentage.

**Q.** What about the “percentage inhibition of ROCK2” value (ROCK2) of the same compound?
**A.** Its value is 0 percentage.

**Q.** And the “percentage inhibition of HIPK2” value (HIPK2)?
**A.** Its value is 3 percentage.

**Q.** And the “percentage inhibition of MST2” value (MST2)?
**A.** Its value is 0 percentage.

**Q.** What about the “percentage inhibition of BTK” value (BTK) of the same compound?
**A.** Its value is 0 percentage.

**Q.** And the “percentage inhibition of FGF-R1” value (FGF-R1)?
**A.** The value was 19 percentage.

**Q.** What about the “percentage inhibition of HER4” value (HER4) of the same compound?
**A.** The value was 3 percentage.

**Q.** With `CN1CCC(N2Cc3ccccc3-c3n[nH]c4ccnc2c34)CC1` [Example 55] as the compound, how does the “percentage inhibition of ERK1” value (ERK1) read?
**A.** Its value is 4 percentage.

**Q.** And the “percentage inhibition of ERK2” value (ERK2)?
**A.** Its value is 0 percentage.

**Q.** What about the “percentage inhibition of ROCK2” value (ROCK2) of the same compound?
**A.** The value was 14 percentage.

**Q.** And the “percentage inhibition of HIPK2” value (HIPK2)?
**A.** Its value is 1 percentage.

**Q.** And the “percentage inhibition of MST2” value (MST2)?
**A.** The value was 28 percentage.

**Q.** What about the “percentage inhibition of BTK” value (BTK) of the same compound?
**A.** Its value is 0 percentage.

**Q.** And the “percentage inhibition of FGF-R1” value (FGF-R1)?
**A.** Its value is 9 percentage.

**Q.** And the “percentage inhibition of HER4” value (HER4)?
**A.** Its value is 0 percentage.

**Q.** What about the “percentage inhibition of VEG-FR” value (VEG-FR) of the same compound?
**A.** Its value is 19 percentage.
